# Reference: US8372383B2, “Agent for inducing hair growth containing extracts of saw palmetto and swertia” (Medidermis Ltd, priority 1999, dated 2013)
# Tests used:
# hair loss [1] = settings: after at least one-year daily uptake; 39% hair growth in control group; cited from earlier work
# Mice (males, C3H type) = experiment: Hair growth model in mice in the resting phase of the hair cycle (weight of hair after 18 days of topical application); type: in vivo
# Excerpt: Data was objectively assessed by the experiments given hereafter in an already established hair growth model in mice [Inaoka Y, et al. 1994, 42:530-3.], employing treatment versus controls. As a positive control, minoxidil 5% was used. […] The present invention thus fulfills the need for a natural combination of plant extracts and provides the advantages of unanimous use and excellent efficacy. In mice, the hair growth and effluvium are a continuous cyclic process. […] Therefore, any hair growth during this period is non-physiologic and induced by external agents. […] Any research related to this model should employ minoxidil as the “golden standard” and as an essential positive control. Mice (males, C3H type), which were in the resting phase in their hair cycle, i.e. at 7 weeks of age, were employed in these experiments. The skin of the back of the mice was subjected to a complete hair cut by an electric razor, with areas of approximately 2.5×4 cm. Different solutions, as will be further described, (100 μL/day) were applied with a syringe 6 times a week for 18 days, and the skin was further massaged. At the end of the experiment, the animals were sacrificed and the skin of the back was excised. The excised skin was fixed on frame consisting of a metal disc with a radius of 0.9 cm. Hairs were cut by a scalpel, collected and weighted. […] Data was calculated by SigmaStat version 2.0, Jandel.
# hair loss [2] = settings: at the more effective higher concentrations; cited from earlier work
SMILES,success (hair growth) (hair loss [1]) [%],"Weight Of Hair (Mice (males, C3H type); C3H male mice, 7 weeks old, 100 μL/day topically 6 times a week for 18 days, hair from excised back skin, disc of radius 0.9 cm, control (placebo) 2.52 mg) [mg]","increase of hair weight as compared to control mice (Mice (males, C3H type); C3H mice, topical, 18 days, versus placebo-treated control)",side effects (hair loss [2])
CC(C)(C)NC(=O)[C@H]1CC[C@H]2[C@@H]3CC[C@H]4NC(=O)C=C[C@]4(C)[C@H]3CC[C@]12C [Finasteride],60,,,
"Nc1cc(N2CCCCC2)nc(N)[n+]1[O-] [Minoxidil 5.0%, minoxidil]",,4.07,about 65%,may cause hypotension or hypertrichosis
